Calls of active or inactive are those of the source. No cut-off for these calls is given here.
Key:
Mus musculus [1] = assay: Antiobesity activity in diet induced obese C57BL/6J mouse model assessed as decrease in food intake at 30 mg/kg administered as daily dose measured every day for 5 days; format: functional, organism-based
[2] = Tmax in C57BL/6J mouse at 5 mg/kg, iv or 20 mg/kg, po administered via gavage by LC-MS/MS analysis; format: ADME, organism-based; details: in vivo
Cytochrome P450 2D6 = Cytochrome P450 2D6 (Homo sapiens, UniProt P10635); assay: Inhibition of CYP2D6 in human liver microsomes using dextromethorphan as substrate after 10 to 30 mins by LC/MS analysis; format: ADME
Sequence of Cytochrome P450 2D6 (P10635 whole entry): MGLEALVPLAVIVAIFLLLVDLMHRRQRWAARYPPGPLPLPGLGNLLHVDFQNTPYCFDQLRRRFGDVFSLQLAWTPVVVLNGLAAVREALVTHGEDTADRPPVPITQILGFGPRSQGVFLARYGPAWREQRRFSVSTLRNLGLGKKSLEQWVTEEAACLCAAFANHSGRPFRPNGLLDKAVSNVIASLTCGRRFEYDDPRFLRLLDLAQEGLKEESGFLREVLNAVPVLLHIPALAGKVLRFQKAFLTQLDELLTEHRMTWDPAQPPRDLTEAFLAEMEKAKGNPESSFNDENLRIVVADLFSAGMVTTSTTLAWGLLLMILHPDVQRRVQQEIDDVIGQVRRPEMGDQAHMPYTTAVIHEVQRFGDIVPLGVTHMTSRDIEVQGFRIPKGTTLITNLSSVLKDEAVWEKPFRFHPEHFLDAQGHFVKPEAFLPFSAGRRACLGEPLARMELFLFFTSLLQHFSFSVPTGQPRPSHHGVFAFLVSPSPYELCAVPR

Mus musculus [3] = assay: Antiobesity activity in diet induced obese C57BL/6J mouse model assessed as decrease in body weight at 3 to 10 mg/kg, po administered as daily dose measured every day for 5 days and continuing every other day till day 17; format: functional, organism-based
[4] = Ratio of drug level in C57BL/6J mouse brain to plasma at 20 mg/kg, po measured after 4 hrs; format: ADME, organism-based; details: read-out: BPR
[5] = Drug uptake in C57BL/6J mouse brain at 20 mg/kg, po measured after 1 hr; format: ADME, organism-based; details: in vivo
[6] = Drug uptake in C57BL/6J mouse plasma at 20 mg/kg, po measured after 1 hr; format: ADME, organism-based
[7] = Ratio of drug level in brain to plasma of diet-induced obese C57BL/6J mouse model at 30 mg/kg administered as daily dose measured at 2 hrs post last dose on day 5; format: ADME, organism-based; details: read-out: BPR
[8] = Drug uptake in brain of diet-induced obese C57BL/6J mouse model at 3 mg/kg, po administered as daily dose measured at 2 hrs post last dose on day 2; format: ADME, organism-based; details: in vivo
Salmonella typhimurium = assay: Mutagenicity in Salmonella typhimurium by Ames test; format: toxicity, organism-based; details: salmonella enterica subsp. enterica serovar typhimurium
[9] = Ratio of drug level in brain to plasma of diet-induced obese C57BL/6J mouse model at 3 mg/kg, po administered as daily dose measured at 2 hrs post last dose on day 23; format: ADME, organism-based; details: read-out: BPR
[10] = Drug uptake in brain of diet-induced obese C57BL/6J mouse model at 3 mg/kg, po administered as daily dose measured at 2 hrs post last dose on day 23; format: ADME, organism-based; details: in vivo
[11] = AUClast in C57BL/6J mouse at 20 mg/kg, po administered via gavage by LC-MS/MS analysis; format: ADME, organism-based; details: in vivo
[12] = target: Voltage-gated inwardly rectifying potassium channel KCNH2 (Homo sapiens, UniProt Q12809); assay: Inhibition of human ERG
Sequence of Voltage-gated inwardly rectifying potassium channel KCNH2 (Q12809 whole entry): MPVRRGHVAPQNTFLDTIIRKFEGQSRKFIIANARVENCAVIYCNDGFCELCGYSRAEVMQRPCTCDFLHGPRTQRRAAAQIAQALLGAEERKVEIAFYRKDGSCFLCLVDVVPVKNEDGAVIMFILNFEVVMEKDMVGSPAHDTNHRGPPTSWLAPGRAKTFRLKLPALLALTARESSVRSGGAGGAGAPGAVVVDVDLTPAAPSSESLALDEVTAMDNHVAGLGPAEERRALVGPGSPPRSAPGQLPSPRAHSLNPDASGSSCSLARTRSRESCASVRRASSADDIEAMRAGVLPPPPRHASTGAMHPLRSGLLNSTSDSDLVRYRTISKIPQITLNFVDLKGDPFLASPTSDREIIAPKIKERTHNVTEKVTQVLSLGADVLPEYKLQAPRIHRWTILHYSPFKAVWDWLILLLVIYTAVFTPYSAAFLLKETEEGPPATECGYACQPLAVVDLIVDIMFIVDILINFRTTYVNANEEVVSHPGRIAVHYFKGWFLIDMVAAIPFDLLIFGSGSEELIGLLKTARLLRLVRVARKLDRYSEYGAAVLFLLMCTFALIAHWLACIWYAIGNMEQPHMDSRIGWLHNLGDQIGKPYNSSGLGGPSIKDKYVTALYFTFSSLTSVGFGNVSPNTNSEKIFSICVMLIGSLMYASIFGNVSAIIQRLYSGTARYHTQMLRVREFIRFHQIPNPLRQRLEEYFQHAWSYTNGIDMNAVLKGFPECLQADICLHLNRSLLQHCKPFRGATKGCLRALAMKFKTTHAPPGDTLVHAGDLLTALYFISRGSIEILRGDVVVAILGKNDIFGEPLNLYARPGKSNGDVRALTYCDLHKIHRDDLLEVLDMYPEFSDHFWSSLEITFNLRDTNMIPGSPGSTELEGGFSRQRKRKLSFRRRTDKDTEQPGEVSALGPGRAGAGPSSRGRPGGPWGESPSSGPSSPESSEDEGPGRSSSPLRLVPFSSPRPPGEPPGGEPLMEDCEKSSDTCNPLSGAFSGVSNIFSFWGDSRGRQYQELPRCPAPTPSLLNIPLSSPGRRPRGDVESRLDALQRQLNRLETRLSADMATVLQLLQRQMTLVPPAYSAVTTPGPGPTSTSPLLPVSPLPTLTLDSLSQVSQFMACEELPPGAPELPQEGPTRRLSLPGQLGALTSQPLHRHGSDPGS

Cannabinoid receptor 1 = Cannabinoid receptor 1 (Homo sapiens, UniProt P21554); assay: Potency index, ratio of rimonabant IC50 to compound IC50 for displacement of [3H]-CP-55940 from human CB1 receptor expressed in CHO-K1 cell membranes
Sequence of Cannabinoid receptor 1 (P21554 whole entry): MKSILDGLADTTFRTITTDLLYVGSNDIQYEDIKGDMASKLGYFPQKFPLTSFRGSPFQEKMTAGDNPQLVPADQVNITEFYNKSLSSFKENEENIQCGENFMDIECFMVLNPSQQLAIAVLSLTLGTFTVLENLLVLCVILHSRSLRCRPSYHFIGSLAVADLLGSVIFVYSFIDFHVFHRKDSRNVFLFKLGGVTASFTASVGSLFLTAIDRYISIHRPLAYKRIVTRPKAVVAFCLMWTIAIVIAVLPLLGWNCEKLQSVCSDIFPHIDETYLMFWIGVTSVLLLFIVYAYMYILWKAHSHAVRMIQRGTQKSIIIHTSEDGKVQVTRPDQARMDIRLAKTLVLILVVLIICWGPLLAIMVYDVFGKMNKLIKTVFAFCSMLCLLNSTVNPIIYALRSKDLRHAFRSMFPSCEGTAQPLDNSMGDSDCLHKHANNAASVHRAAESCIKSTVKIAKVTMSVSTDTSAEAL

[13] = Drug uptake in plasma of diet-induced obese C57BL/6J mouse model at 1 mg/kg, po administered as daily dose measured at 2 hrs post last dose on day 22; format: ADME, organism-based
[14] = Drug uptake in plasma of diet-induced obese C57BL/6J mouse model at 10 mg/kg, po administered as daily dose measured at 2 hrs post last dose on day 22; format: ADME, organism-based
Mus musculus [15] = assay: Antiobesity activity in diet induced obese C57BL/6J mouse model assessed as decrease in total cholesterol level at 3 to 10 mg/kg, po administered as daily dose measured at day 26 post last dose; format: functional, organism-based
[16] = Ratio of drug level in C57BL/6J mouse brain to plasma at 20 mg/kg, po measured after 1 hr; format: ADME, organism-based; details: read-out: BPR
[17] = Drug uptake in plasma of diet-induced obese C57BL/6J mouse model at 10 mg/kg, po administered as daily dose measured at 2 hrs post last dose on day 1; format: ADME, organism-based
[18] = Oral bioavailability in C57BL/6J mouse at 20 mg/kg administered via gavage by LC-MS/MS analysis; format: ADME, organism-based; details: in vivo
[19] = Drug uptake in brain of diet-induced obese C57BL/6J mouse model at 10 mg/kg, po administered as daily dose measured at 2 hrs post last dose on day 2; format: ADME, organism-based; details: in vivo
Mus musculus [20] = assay: Antiobesity activity in diet induced obese C57BL/6J mouse model assessed as decrease in body weight at 3 mg/kg, po administered as daily dose measured every day for 5 days and continuing every other day till day 8 and 15; format: functional, organism-based
[21] = Drug uptake in brain of diet-induced obese C57BL/6J mouse model at 10 mg/kg, po administered as daily dose measured at 2 hrs post last dose on day 23; format: ADME, organism-based; details: in vivo
[22] = Drug uptake in C57BL/6J mouse brain at 20 mg/kg, po measured after 4 hrs; format: ADME, organism-based; details: in vivo
Mus musculus [23] = assay: Antiobesity activity in diet induced obese C57BL/6J mouse model assessed as decrease in food intake at 3 mg/kg, po administered as daily dose measured every day for 5 days and continuing every other day till day 8 and 15; format: functional, organism-based
[24] = Drug uptake in plasma of diet-induced obese C57BL/6J mouse model at 1 mg/kg, po administered as daily dose measured at 2 hrs post last dose on day 1; format: ADME, organism-based
[25] = Metabolic stability in mouse liver microsomes assessed as parent compound remaining at 1 uM after 10 mins in presence of NADPH; format: ADME, microsome; details: read-out: Stability
Cytochrome P450 2C19 = Cytochrome P450 2C19 (Homo sapiens, UniProt P33261); assay: Inhibition of CYP2C19 in human liver microsomes using (S)-mephenytoin as substrate after 10 to 30 mins by LC/MS analysis; format: ADME
Sequence of Cytochrome P450 2C19 (P33261 whole entry): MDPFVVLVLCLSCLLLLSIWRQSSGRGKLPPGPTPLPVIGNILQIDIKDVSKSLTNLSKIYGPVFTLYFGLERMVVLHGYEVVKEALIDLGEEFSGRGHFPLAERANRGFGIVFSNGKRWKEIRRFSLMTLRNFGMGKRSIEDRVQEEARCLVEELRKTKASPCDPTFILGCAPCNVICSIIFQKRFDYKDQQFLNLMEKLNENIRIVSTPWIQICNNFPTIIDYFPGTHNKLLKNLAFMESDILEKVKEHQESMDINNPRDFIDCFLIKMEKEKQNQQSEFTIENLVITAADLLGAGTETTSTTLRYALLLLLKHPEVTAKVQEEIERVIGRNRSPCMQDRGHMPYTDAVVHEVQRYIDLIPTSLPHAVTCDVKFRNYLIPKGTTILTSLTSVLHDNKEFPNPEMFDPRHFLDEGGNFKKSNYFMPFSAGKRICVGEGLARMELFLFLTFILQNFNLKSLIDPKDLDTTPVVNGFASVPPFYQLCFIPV

[26] = Half life in C57BL/6J mouse at 5 mg/kg, iv by LC-MS/MS analysis; format: ADME, organism-based; details: in vivo
[27] = Ratio of drug level in brain to plasma of diet-induced obese C57BL/6J mouse model at 10 mg/kg, po administered as daily dose measured at 2 hrs post last dose on day 1; format: ADME, organism-based; details: read-out: BPR
[28] = Drug uptake in plasma of diet-induced obese C57BL/6J mouse model at 30 mg/kg administered as daily dose measured at 2 hrs post last dose on day 5; format: ADME, organism-based
[29] = Drug uptake in brain of diet-induced obese C57BL/6J mouse model at 30 mg/kg administered as daily dose measured at 2 hrs post last dose on day 5; format: ADME, organism-based; details: in vivo
[30] = Drug uptake in brain of MDR1a knockout CF-1 mouse at 20 mg/kg, po measured at 2 hrs post last dose on day 2; format: ADME, organism-based; details: in vivo
Cannabinoid receptor 2 = Cannabinoid receptor 2 (Homo sapiens, UniProt P34972); assay: Inverse agonist activity at human CB2 receptor expressed in HEK293 cells assessed as […] cAMP accumulation after 30 mins by HTRF assay; format: functional, cell-based
Sequence of Cannabinoid receptor 2 (P34972 whole entry): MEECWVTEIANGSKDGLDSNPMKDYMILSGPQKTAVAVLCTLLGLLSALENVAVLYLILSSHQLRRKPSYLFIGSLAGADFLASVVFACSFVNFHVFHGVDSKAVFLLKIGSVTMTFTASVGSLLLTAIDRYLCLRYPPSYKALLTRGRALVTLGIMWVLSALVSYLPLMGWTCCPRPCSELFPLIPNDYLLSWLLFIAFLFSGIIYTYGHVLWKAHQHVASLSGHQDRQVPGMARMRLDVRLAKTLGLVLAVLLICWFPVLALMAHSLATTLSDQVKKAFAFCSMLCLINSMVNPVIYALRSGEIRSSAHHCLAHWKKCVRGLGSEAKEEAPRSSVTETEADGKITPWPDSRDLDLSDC

[31] = Ratio of drug level in brain to plasma of MDR1a knockout CF-1 mouse at 20 mg/kg, po; format: ADME, organism-based; details: read-out: BPR
[32] = Metabolic stability in human liver microsomes assessed as parent compound remaining at 1 uM after 10 mins in presence of NADPH; format: ADME, microsome; details: read-out: Stability
Mus musculus [33] = assay: Antiobesity activity in diet induced obese C57BL/6J mouse model assessed as decrease in body weight at 30 mg/kg administered as daily dose measured every day for 5 days; format: functional, organism-based
Cytochrome P450 3A4 = Cytochrome P450 3A4 (Homo sapiens, UniProt P08684); assay: Inhibition of CYP3A4 in human liver microsomes using midazolam/testosterone as substrate after 10 to 30 mins by LC/MS analysis; format: ADME
Sequence of Cytochrome P450 3A4 (P08684 whole entry): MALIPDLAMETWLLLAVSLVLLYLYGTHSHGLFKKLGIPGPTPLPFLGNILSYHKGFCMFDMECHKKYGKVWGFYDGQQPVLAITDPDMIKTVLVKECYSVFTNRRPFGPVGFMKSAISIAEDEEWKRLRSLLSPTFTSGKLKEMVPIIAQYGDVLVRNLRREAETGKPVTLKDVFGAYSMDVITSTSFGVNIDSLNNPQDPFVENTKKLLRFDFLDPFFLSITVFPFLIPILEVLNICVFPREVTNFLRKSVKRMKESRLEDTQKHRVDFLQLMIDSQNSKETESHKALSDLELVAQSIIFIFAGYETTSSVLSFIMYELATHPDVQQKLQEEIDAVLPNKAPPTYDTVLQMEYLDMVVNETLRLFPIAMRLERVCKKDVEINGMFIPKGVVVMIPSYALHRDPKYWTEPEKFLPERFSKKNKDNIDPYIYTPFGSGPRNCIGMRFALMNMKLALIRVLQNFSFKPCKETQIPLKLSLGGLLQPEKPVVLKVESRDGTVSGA

With O=c1cc(NC2CCN(S(=O)(=O)C(F)(F)F)CC2)c2cc(C(c3ccc(Cl)cc3)c3ccc(Cl)cc3)ccc2[nH]1 the Activity (Mus musculus [1]) was “Active”, the Tmax [2] was 2 h and the IC50 (Cytochrome P450 2D6) was over 10 µM. For the same compound, the Activity (Mus musculus [3]) was “Active”, the Kp at 4 h [4] was 0.0099 and the Drug uptake [5] was 0.012 nmol/g. It also gave a concentration at 1 h [6] of 1720 nM, a Kp at 2 h [7] of 0.024 and a Drug uptake [8] of under 4 nmol/g. For the same compound, the Activity (Salmonella typhimurium) was “Non-Toxic”, the Kp at 2 h [9] was 0.065 and the Drug uptake [10] was 0.164 nmol/g. For the same compound, the AUC(0-t) [11] was 28.4 µM·h, the IC50 [12] was over 50 µM and the Ratio IC50 (Cannabinoid receptor 1) was 6. The concentration at 2 h [13] was 843 nM, the concentration at 2 h [14] was 8650 nM and the Activity (Mus musculus [15]) was “Active”. For the same compound, the Kp at 1 h [16] was 0.0073, the concentration at 2 h [17] was 4080 nM and the bioavailability [18] was 13%. For the same compound, the Drug uptake [19] was 0.102 nmol/g, the Activity (Mus musculus [20]) was “Active” and the Drug uptake [21] was 0.329 nmol/g. The Drug uptake [22] was 0.019 nmol/g, the Activity (Mus musculus [23]) was “Active” and the concentration at 2 h [24] was 508 nM. For the same compound, the remaining at 10 min, 1 µM [25] was 100%, the IC50 (Cytochrome P450 2C19) was over 10 µM and the half-life [26] was 6.97 h. For the same compound, the Kp at 2 h [27] was 0.026, the concentration at 2 h [28] was 18500 nM and the Drug uptake [29] was 0.357 nmol/g. It also gave a Drug uptake [30] of 3.49 nmol/g, an EC50 (Cannabinoid receptor 2) of over 10 µM and a Kp [31] of 0.72. The remaining at 10 min, 1 µM [32] was 100%, the Activity (Mus musculus [33]) was “Active” and the IC50 (Cytochrome P450 3A4) was over 10 µM.

Source: ChEMBL document CHEMBL4270663, “6-Benzhydryl-4-amino-quinolin-2-ones as Potent Cannabinoid Type 1 (CB1) Receptor Inverse Agonists and Chemical Modifications for Peripheral Selectivity” (J Med Chem, 2018)
